Read-outs that look alike come from different tables or passages of the source.
Assays:
BRD4 (BD1) [1] = target: T1, BRD4 (BD1) (Homo sapiens, UniProt O60885); test: Differential scanning fluorimetry (DSF) single-dose thermal shift screening; format: binding; conditions: read-out: ΔTm ºC at [10 µM]
T1 construct: A pET28 plasmid containing residues 44–168 of BRD4 (BD1), a 6xHis tag, a TEV protease cleavage site; 6xHis (N, cleaved yes); made in house; host or cells: E. coli Rosetta (D3)

His6-BRD4 (BD1) = target: T2, His6-BRD4 (BD1) (Homo sapiens, UniProt O60885); test: Surface plasmon resonance (SPR) single-dose screening; format: binding; parameters: key to SPR RESULT: Positive: compounds were considered as SPR hits also when their average signal was further than two standard deviations apart from the average signal of the blank samples (1% DMSO); conditions: for RUs at [10 µM]: SPR, compound 10 µM, 1% DMSO, n = 2, decimal comma; for SPR RESULT: single dose 10 µM, n = 2
T2 construct: A pET28 plasmid containing residues 44–168 of BRD4 (BD1), a 6xHis tag, a TEV protease cleavage site; made in house; host or cells: E. coli Rosetta (D3)

BRD4 (BD1) [2] = target: T1, BRD4 (BD1); test: Competitive HTRF TR-FRET binding assay (displacement of acetylated histone H4 peptide); conditions: 16-point titration 0.1 nM to 10 µM, n = 2, Negative = curve could not be fitted to a sigmoidal curve; for IC50: read-out: TR-FRET IC50
Method: To further quantitatively characterize the DSF/SPR hits compounds obtained in the single-dose screenings, we selected HTRF TR-FRET. Specifically, we employed a competitive HTRF TR-FRET experiment to measure the compound’s capacity to displace an acetylated peptide from the binding site of BRD4 (BD1). For each molecule, a 16-point concentration curve was titrated against the peptide-BRD (BD1) complex and incubated for 1.5 h. A compound was considered a positive binder if we could fit its titration curve to a sigmoidal curve to determine its IC50. […] Compound screening was carried out in 384-well, white, round-bottom, small-volume plates (CORNING) in a final volume of 20 µL of 50 mM HEPES (pH 7.4), 50 mM NaCl, 400 mM KF, 0.5 mM CHAPS, and 0.05% BSA. […] Then, the labeled anti-His6-XL665 antibody (CisBio) (10 nM) was added to the mixture and incubated for 15 min, before the Eu3+ cryptate-conjugated streptavidin (2 nM) (CisBio) was added and incubated for 15 min. All incubations were performed at room temperature. […] Titration of (+)−JQ1 was used as a positive control for each experiment.

[3] = DSF, compound 10 µM, BRD4 (BD1) 2 µM, n = 3, decimal comma

| Structure (SMILES) | ΔTm at 10 µM (BRD4 (BD1) [1]; [3]) [°C] | RUs at [10 µM] (His6-BRD4 (BD1)) | SPR RESULT (His6-BRD4 (BD1)) | IC50 (BRD4 (BD1) [2]) [nM] | TR-FRET IC50 (nM) (BRD4 (BD1) [2]) | ΔTm at 10 µM (BRD4 (BD1) [1]) [°C] |
| --- | --- | --- | --- | --- | --- | --- |
| Cc1nn(C)cc1C(=O)NC1CCC2(CC1)CCN(C(=O)c1sc3nnc(C)c(C)c3c1N)CC2 [Compound 24, CC1=NN(C)C=C1C(=O)NC2CCC3(CC2)CCN(CC3)C(=O)C=4SC=5N=NC(C)=C(C)C5C4N] | 2.35 | 40,95 ± 7,16 RUs | Positive | 1760 | – | – |
| COc1cccc(-n2c(C)nnc2SCC(=O)NC2(CO)CCCCCCC2)c1 [Compound 27, COC=1C=CC=C(C1)N2C(C)=NN=C2SCC(=O)NC3(CO)CCCCCCC3] | – | 28,33 ± 20,88 RUs | Negative | – | Negative | -0.98 |
| COc1ccc(-n2c(C)nnc2SCC(=O)NCC2(N)CCOCC2)cc1 [Compound 28, COC=1C=CC(=CC1)N2C(C)=NN=C2SCC(=O)NCC3(N)CCOCC3] | 0.36 | 16,66 ± 3,56 RUs | Positive | – | Negative | – |
| COc1cccc(-n2c(C)nnc2SCC(=O)NC2CN(C(=O)C3CCOCC3)CC23CC3)c1 (stereo not shown) [Compound 32, COC=1C=CC=C(C1)N2C(C)=NN=C2SCC(=O)NC3CN(CC43CC4)C(=O)C5CCOCC5] | 0.87 | 3,3 ± 1,9 RUs | Negative | 386 | – | – |
| COc1cccc(-n2c(C)nnc2SCC(=O)N2CC(n3cc(-c4ccc(F)cn4)nn3)C2)c1 [Compound 37, COC=1C=CC=C(C1)N2C(C)=NN=C2SCC(=O)N3CC(C3)N4C=C(N=N4)C=5C=CC(F)=CN5] | 0.77 | 12,42 ± 11,24 RUs | Negative | – | Negative | – |
| Cc1cc(C)n2nc(NC(=O)N3CCC(F)(F)C4(CCOC4)C3)nc2n1 (stereo not shown) [Compound 68, CC=1C=C(C)N2N=C(NC(=O)N3CCC(F)(F)C4(CCOC4)C3)N=C2N1] | 1.11 | 9,66 ± 4,71 RUs | Negative | – | – | – |

More lines, main results first:

| ΔTm at 10 µM (BRD4 (BD1) [1]; [3]) [°C] | RUs at [10 µM] (His6-BRD4 (BD1)) | SPR RESULT (His6-BRD4 (BD1)) | IC50 (BRD4 (BD1) [2]) [nM] | TR-FRET IC50 (nM) (BRD4 (BD1) [2]) | Structure (SMILES) | ΔTm at 10 µM (BRD4 (BD1) [1]) [°C] |
| --- | --- | --- | --- | --- | --- | --- |
| 2.41 | 22,43 ± 8,33 RUs | Negative | 149 | – | CCCc1c(C(=O)N2CCC(F)(F)C(CNC(=O)c3nc(C)c(C)s3)C2)[nH]c(C)c1C(C)=O (stereo not shown) [Compound 25, CCCC1=C(NC(C)=C1C(=O)C)C(=O)N2CCC(F)(F)C(CNC(=O)C3=NC(C)=C(C)S3)C2] | – |
| 2.61 | 22,04 ± 8,53 RUs | Negative | 1020 | – | CCCc1c(C(=O)N2CCOC(CN(C)C(=O)c3cccn3C)C2)[nH]c(C)c1C(C)=O (stereo not shown) [Compound 26, CCCC1=C(NC(C)=C1C(=O)C)C(=O)N2CCOC(CN(C)C(=O)C3=CC=CN3C)C2] | – |
| -1.17 | – | Negative | – | Negative | CC(=O)c1c(C)[nH]c(C(=O)N2CCCC(c3cn(CC4CC5CC5C4)nn3)C2)c1C (stereo not shown) [Compound 29, CC(=O)C1=C(C)NC(C(=O)N2CCCC(C2)C3=CN(CC4CC5CC5C4)N=N3)=C1C] | – |
| 0.43 | 17,68 ± 18,73 RUs | Negative | – | Negative | COc1cccc(-n2c(C)nnc2SCC(=O)N2CCCN(C(=O)c3cc(F)c[nH]3)CC2)c1 [Compound 30, COC=1C=CC=C(C1)N2C(C)=NN=C2SCC(=O)N3CCCN(CC3)C(=O)C4=CC(F)=CN4] | – |
| 0.02 | 8,73 ± 4,6 RUs | Negative | – | Negative | CCn1nnc2cc(C(=O)N3CCC(CCNC(=O)c4nc(O)sc4C)C3)ccc21 (stereo not shown) [Compound 31, CCN1N=NC=2C=C(C=CC12)C(=O)N3CCC(CCNC(=O)C=4N=C(O)SC4C)C3] | – |
| 0.1 | 8,85 ± 1,09 RUs | Negative | – | Negative | CCCc1c(C(=O)N2CCC(Cc3cn(-c4cccc(F)c4C)nn3)C2)[nH]c(C)c1C(C)=O (stereo not shown) [Compound 33, CCCC1=C(NC(C)=C1C(=O)C)C(=O)N2CCC(CC3=CN(N=N3)C=4C=CC=C(F)C4C)C2] | – |
| 0.86 | 23,05 ± 1,41 RUs | Positive | 1210 | – | CCn1nnc2cc(C(=O)N3CCCN(C(=O)c4ccccc4Cl)C(c4ccccc4)C3)ccc21 (stereo not shown) [Compound 34, CCN1N=NC=2C=C(C=CC12)C(=O)N3CCCN(C(C3)C=4C=CC=CC4)C(=O)C=5C=CC=CC5Cl] | – |
| 0.69 | 13,78 ± 5,32 RUs | Negative | 1070 | – | COc1cccc(-n2c(C)nnc2SCC(=O)N2CC3CCC2CN3C(=O)c2ccns2)c1 (stereo not shown) [Compound 35, COC=1C=CC=C(C1)N2C(C)=NN=C2SCC(=O)N3CC4CCC3CN4C(=O)C5=CC=NS5] | – |
| 0.34 | 6,83 ± 2,31 RUs | Negative | – | Negative | CCn1nnc2cc(C(=O)N3CCC(N(C)C(=O)C4CN(C)CCO4)C3)ccc21 (stereo not shown) [Compound 36, CCN1N=NC=2C=C(C=CC12)C(=O)N3CCC(C3)N(C)C(=O)C4CN(C)CCO4] | – |
